Experimental data taken from the supplement of paper PMC4862054.

Tests used:
Conditions in all cases: incubation time: 72 h
MDA-MB-468 [1] = assay: normalised response (% of control), CellTiter-Glo; higher = more viable cells (100 = DMSO, 0 = benzethonium chloride kill control)
Summary of the method: (§1)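 Each entry is the normalised signal at a single concentration within a series. The series comprised 5 concentrations in 10-fold steps over a compound-specific 10,000-fold range, placed in 384-well plates into which breast cancer cell lines were seeded as 20 µl suspension and incubated 72 h. CellTox Green (485/520 nm) fluorescence and then CellTiter-Glo luminescence were read, with signals normalised per plate to 0.1 % DMSO (100) and a positive kill control (0).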

HCC1937 [2] = assay: as above
Summary of the method: as §1

CAL-85-1 [3] = assay: as above
Summary of the method: as §1

MDA-MB-453 [4] = assay: as above
Summary of the method: as §1

SK-BR-3 [5] = assay: as above
Summary of the method: as §1

HDQ-P1 [6] = assay: as above
Summary of the method: as §1

MDA-MB-436 [7] = assay: as above
Summary of the method: as §1

CAL-120 [8] = assay: as above
Summary of the method: as §1

MCF-10A = assay: as above
Summary of the method: as §1

DU-4475 [9] = assay: as above
Summary of the method: as §1

BT-474 [10] = assay: as above
Summary of the method: as §1

HCC1143 [11] = assay: as above
Summary of the method: as §1

MDA-MB-231 [12] = assay: as above
Summary of the method: as §1

BT-549 [13] = assay: as above
Summary of the method: as §1

Hs578T [14] = assay: as above
Summary of the method: as §1

CAL-51 [15] = assay: as above
Summary of the method: as §1

HCC1599 [16] = assay: as above
Summary of the method: as §1

CAL-148 [17] = assay: as above
Summary of the method: as §1

MFM-223 [18] = assay: as above
Summary of the method: as §1

MDA-MB-468 [19] = assay: normalised viability (% of control), CellTiter-Blue; higher = more viable cells (100 = DMSO, 0 = benzethonium chloride kill control)
Protocol: (§2)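 DSRT, CellTiter-Blue viability, 72 h incubation. Signal is normalised to DMSO and benzethonium chloride controls. Value is the normalised response at dose 1.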

HCC1937 [20] = assay: as above
Protocol: as §2

CAL-85-1 [21] = assay: as above
Protocol: as §2

MDA-MB-453 [22] = assay: as above
Protocol: as §2

SK-BR-3 [23] = assay: as above
Protocol: as §2

HDQ-P1 [24] = assay: as above
Protocol: as §2

MDA-MB-436 [25] = assay: as above
Protocol: as §2

CAL-120 [26] = assay: as above
Protocol: as §2

DU-4475 [27] = assay: as above
Protocol: as §2

BT-474 [28] = assay: as above
Protocol: as §2

HCC1143 [29] = assay: as above
Protocol: as §2

MDA-MB-231 [30] = assay: as above
Protocol: as §2

BT-549 [31] = assay: as above
Protocol: as §2

Hs578T [32] = assay: as above
Protocol: as §2

CAL-51 [33] = assay: as above
Protocol: as §2

HCC1599 [34] = assay: as above
Protocol: as §2

CAL-148 [35] = assay: as above
Protocol: as §2

MFM-223 [36] = assay: as above
Protocol: as §2

SMILES: COc1cccc2c1C(=O)c1c(O)c3c(c(O)c1C2=O)C[C@@](O)(C(C)=O)C[C@@H]3O[C@H]1C[C@H](N)[C@H](O)[C@H](C)O1 [Daunorubicin] (0.1 nM)
- normalised response (MDA-MB-468 [1]): 102%
- normalised response (HCC1937 [2]): 95.6%
- normalised response (CAL-85-1 [3]): 102%
- normalised response (MDA-MB-453 [4]): 112%
- normalised response (SK-BR-3 [5]): 101%
- normalised response (HDQ-P1 [6]): 104%
- normalised response (MDA-MB-436 [7]): 129%
- normalised response (CAL-120 [8]): 99%
- normalised response (MCF-10A): 112%
- normalised response (DU-4475 [9]): 100%
- normalised response (BT-474 [10]): 108%
- normalised response (HCC1143 [11]): 103%
- normalised response (MDA-MB-231 [12]): 105%
- normalised response (BT-549 [13]): 106%
- normalised response (Hs578T [14]): 107%
- normalised response (CAL-51 [15]): 108%
- normalised response (HCC1599 [16]): 104%
- normalised response (CAL-148 [17]): 112%
- normalised response (MFM-223 [18]): 108%
- normalised viability (MDA-MB-468 [19]): 100%
- normalised viability (HCC1937 [20]): 115%
- normalised viability (CAL-85-1 [21]): 88.7%
- normalised viability (MDA-MB-453 [22]): 107%
- normalised viability (SK-BR-3 [23]): 85.2%
- normalised viability (HDQ-P1 [24]): 98.8%
- normalised viability (MDA-MB-436 [25]): 99.1%
- normalised viability (CAL-120 [26]): 87.8%
- normalised viability (DU-4475 [27]): 88.2%
- normalised viability (BT-474 [28]): 101%
- normalised viability (HCC1143 [29]): 102%
- normalised viability (MDA-MB-231 [30]): 103%
- normalised viability (BT-549 [31]): 100%
- normalised viability (Hs578T [32]): 130%
- normalised viability (CAL-51 [33]): 99.2%
- normalised viability (HCC1599 [34]): 101%
- normalised viability (CAL-148 [35]): 106%
- normalised viability (MFM-223 [36]): 97.3%

SMILES: CN1CCN(c2ccc3nc(-c4c(N)c5c(F)cccc5[nH]c4=O)[nH]c3c2)CC1 [Dovitinib] (1 nM)
- normalised response (MDA-MB-468 [1]): 99.6%
- normalised response (HCC1937 [2]): 96.3%
- normalised response (CAL-85-1 [3]): 100%
- normalised response (MDA-MB-453 [4]): 102%
- normalised response (SK-BR-3 [5]): 94.1%
- normalised response (HDQ-P1 [6]): 96%
- normalised response (MDA-MB-436 [7]): 99.5%
- normalised response (CAL-120 [8]): 94.9%
- normalised response (MCF-10A): 89.3%
- normalised response (DU-4475 [9]): 96.2%
- normalised response (BT-474 [10]): 99.9%
- normalised response (HCC1143 [11]): 98.3%
- normalised response (MDA-MB-231 [12]): 102%
- normalised response (BT-549 [13]): 102%
- normalised response (Hs578T [14]): 103%
- normalised response (CAL-51 [15]): 106%
- normalised response (HCC1599 [16]): 105%
- normalised response (CAL-148 [17]): 98.2%
- normalised response (MFM-223 [18]): 95.4%
- normalised viability (MDA-MB-468 [19]): 89.2%
- normalised viability (HCC1937 [20]): 92.2%
- normalised viability (CAL-85-1 [21]): 82%
- normalised viability (MDA-MB-453 [22]): 98.3%
- normalised viability (SK-BR-3 [23]): 77.6%
- normalised viability (HDQ-P1 [24]): 87.4%
- normalised viability (MDA-MB-436 [25]): 105%
- normalised viability (CAL-120 [26]): 78.8%
- normalised viability (DU-4475 [27]): 113%
- normalised viability (BT-474 [28]): 110%
- normalised viability (HCC1143 [29]): 87.3%
- normalised viability (MDA-MB-231 [30]): 84.5%
- normalised viability (BT-549 [31]): 96.2%
- normalised viability (Hs578T [32]): 96.5%
- normalised viability (CAL-51 [33]): 114%
- normalised viability (HCC1599 [34]): 92.6%
- normalised viability (CAL-148 [35]): 104%
- normalised viability (MFM-223 [36]): 80.6%
